{"source": "ChEMBL document CHEMBL5338717", "about": "“Discovery of novel PDE4 inhibitors targeting the M-pocket from natural mangostanin with improved safety for the treatment of Inflammatory Bowel Diseases” (Eur J Med Chem, 2022)", "key": {"Mus musculus [1]": {"test_system": "Mus musculus", "assay": "Anti-inflammatory bowel disease activity in DSS-induced inflammatory bowel disease C57BL/6 mouse model assessed as decrease in body weight loss by measuring disease activity index score at 5 mg/kg, iv BID and measured upto 8 days", "format": "functional, organism-based", "conditions": "time <= 8.0 day"}, "Cytochrome P450 1A2": {"biological_target": "T1, Cytochrome P450 1A2 (Homo sapiens, UniProt P05177)", "T1 sequence (P05177 whole entry)": "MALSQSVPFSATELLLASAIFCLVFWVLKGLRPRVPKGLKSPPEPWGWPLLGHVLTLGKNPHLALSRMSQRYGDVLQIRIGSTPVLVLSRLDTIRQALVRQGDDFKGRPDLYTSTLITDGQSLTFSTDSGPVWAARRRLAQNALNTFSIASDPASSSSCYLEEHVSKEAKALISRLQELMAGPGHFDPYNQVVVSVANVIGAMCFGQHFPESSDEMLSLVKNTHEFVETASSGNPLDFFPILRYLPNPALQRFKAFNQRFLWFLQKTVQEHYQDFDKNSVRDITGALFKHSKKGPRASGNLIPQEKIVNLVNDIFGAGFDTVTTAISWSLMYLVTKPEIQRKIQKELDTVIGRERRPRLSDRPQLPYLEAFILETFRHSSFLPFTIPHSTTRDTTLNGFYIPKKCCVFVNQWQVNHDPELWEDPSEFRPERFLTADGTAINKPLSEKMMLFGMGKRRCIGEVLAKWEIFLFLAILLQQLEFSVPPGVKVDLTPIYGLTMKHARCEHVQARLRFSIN", "assay": "Inhibition of human CYP1A2 in human hepatocytes", "format": "ADME, cell-based, Hepatocyte"}, "Cytochrome P450 3A4": {"biological_target": "Cytochrome P450 3A4 (Homo sapiens, UniProt P08684)", "sequence (P08684 whole entry)": "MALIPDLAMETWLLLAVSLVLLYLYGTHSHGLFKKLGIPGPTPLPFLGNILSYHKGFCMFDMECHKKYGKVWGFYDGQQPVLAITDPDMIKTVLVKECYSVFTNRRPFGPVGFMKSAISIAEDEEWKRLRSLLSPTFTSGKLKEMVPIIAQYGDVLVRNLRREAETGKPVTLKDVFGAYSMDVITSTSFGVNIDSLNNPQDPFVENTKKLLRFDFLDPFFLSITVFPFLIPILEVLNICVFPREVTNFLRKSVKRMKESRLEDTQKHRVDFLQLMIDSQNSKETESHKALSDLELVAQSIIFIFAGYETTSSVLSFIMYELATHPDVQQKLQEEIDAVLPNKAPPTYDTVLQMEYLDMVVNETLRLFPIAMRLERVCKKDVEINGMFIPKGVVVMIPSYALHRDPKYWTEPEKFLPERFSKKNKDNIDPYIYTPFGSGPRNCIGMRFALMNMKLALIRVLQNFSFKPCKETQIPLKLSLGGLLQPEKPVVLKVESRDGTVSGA", "assay": "Inhibition of human CYP3A4 in human hepatocytes", "format": "ADME, cell-based, Hepatocyte"}, "Mus musculus [2]": {"test_system": "Mus musculus", "assay": "Anti-inflammatory bowel disease activity in DSS-induced inflammatory bowel disease C57BL/6 mouse model assessed as decrease in loss of crypt architecture in colon at 5 mg/kg, iv BID and measured after 8 days by Haematoxylin and eosin staining based microscopy", "format": "functional, organism-based", "conditions": "time 8.0 day"}, "[3]": {"assay": "Selectivity index, ratio of IC50 for inhibition of recombinant PDE8A1 (480 to 828 residues) (unknown origin) expressed in Escherichia coli BL21 to IC50 for inhibition of recombinant PDE4D2 (86 to 413 residues) (unknown origin) expressed in Escherichia coli BL21"}, "[4]": {"assay": "Metabolic stability in rat liver microsomes assessed as half life", "format": "ADME, Microsome"}, "[5]": {"assay": "Elimination half life in Sprague-Dawley rat at 2.5 mg/kg, iv", "format": "ADME, organism-based", "conditions": "in vivo, read-out: beta t1/2 (converted)"}, "[6]": {"assay": "Selectivity index, ratio of IC50 for inhibition of PDE5A1 (535 to 860 residues) (unknown origin) expressed in Escherichia coli BL21 to IC50 for inhibition of recombinant PDE4D2 (86 to 413 residues) (unknown origin) expressed in Escherichia coli BL21"}, "Cytochrome P450 2B6": {"biological_target": "T2, Cytochrome P450 2B6 (Homo sapiens, UniProt P20813)", "T2 sequence (P20813 whole entry)": "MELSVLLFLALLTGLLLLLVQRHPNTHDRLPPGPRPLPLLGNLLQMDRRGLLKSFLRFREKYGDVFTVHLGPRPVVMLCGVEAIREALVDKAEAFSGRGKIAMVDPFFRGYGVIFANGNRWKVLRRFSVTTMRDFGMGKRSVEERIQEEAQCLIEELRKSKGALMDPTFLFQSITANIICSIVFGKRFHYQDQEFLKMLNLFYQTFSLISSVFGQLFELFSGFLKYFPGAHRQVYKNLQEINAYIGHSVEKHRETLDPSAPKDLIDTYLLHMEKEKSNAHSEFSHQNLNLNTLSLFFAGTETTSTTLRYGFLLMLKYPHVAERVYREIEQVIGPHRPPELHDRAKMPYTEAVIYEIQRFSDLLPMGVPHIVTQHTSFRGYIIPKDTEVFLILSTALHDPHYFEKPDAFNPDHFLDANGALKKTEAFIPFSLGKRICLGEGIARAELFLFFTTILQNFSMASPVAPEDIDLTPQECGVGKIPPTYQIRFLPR", "assay": "Inhibition of human CYP2B6 in human hepatocytes", "format": "ADME, cell-based, Hepatocyte"}, "Cytochrome P450 2C9": {"biological_target": "Cytochrome P450 2C9 (Homo sapiens, UniProt P11712)", "sequence (P11712 whole entry)": "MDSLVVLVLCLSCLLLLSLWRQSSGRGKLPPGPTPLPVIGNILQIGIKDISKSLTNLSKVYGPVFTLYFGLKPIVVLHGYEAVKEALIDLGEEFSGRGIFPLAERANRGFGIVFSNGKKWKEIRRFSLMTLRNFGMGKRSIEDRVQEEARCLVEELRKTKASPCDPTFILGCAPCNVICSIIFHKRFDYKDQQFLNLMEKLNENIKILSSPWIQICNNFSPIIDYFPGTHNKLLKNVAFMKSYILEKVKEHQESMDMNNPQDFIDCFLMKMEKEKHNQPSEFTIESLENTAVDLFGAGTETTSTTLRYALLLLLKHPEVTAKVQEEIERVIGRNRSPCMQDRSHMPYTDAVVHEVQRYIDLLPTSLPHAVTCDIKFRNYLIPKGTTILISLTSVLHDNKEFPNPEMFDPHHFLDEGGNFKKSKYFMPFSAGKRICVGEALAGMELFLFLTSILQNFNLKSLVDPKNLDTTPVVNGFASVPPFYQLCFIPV", "assay": "Inhibition of human CYP2C9 in human hepatocytes", "format": "ADME, cell-based, Hepatocyte"}, "[7]": {"biological_target": "Dual specificity calcium/calmodulin-dependent 3',5'-cyclic nucleotide phosphodiesterase 1C (Homo sapiens, UniProt Q14123)", "sequence (Q14123 whole entry, the tested form may be a part)": "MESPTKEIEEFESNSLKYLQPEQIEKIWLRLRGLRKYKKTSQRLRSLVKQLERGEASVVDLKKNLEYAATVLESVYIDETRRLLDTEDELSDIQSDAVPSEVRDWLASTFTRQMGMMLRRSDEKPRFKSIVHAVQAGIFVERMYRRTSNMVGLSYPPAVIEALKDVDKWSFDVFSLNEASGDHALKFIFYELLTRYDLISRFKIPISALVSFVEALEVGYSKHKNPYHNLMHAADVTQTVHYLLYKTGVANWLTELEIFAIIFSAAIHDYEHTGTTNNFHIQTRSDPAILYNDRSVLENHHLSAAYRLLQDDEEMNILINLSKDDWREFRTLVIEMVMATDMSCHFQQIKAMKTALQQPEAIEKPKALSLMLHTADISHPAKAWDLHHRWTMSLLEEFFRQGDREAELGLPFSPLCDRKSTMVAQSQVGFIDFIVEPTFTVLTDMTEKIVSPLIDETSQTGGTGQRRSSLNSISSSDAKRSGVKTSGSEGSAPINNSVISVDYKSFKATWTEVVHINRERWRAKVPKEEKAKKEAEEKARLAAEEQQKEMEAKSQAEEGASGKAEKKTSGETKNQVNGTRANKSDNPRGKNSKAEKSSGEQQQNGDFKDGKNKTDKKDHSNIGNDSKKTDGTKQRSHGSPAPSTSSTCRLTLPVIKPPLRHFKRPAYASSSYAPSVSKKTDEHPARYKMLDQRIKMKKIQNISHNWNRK", "assay": "Inhibition of recombinant PDE1C (147 to 531 residues) (unknown origin) expressed in Escherichia coli BL21 using [3H]cGMP as substrate incubated for 15 mins by liquid scintillation method"}, "[8]": {"assay": "Clearance in Sprague-Dawley rat at 2.5 mg/kg, iv", "format": "ADME, organism-based", "conditions": "in vivo"}, "[9]": {"biological_target": "cGMP-specific 3',5'-cyclic phosphodiesterase (Homo sapiens, UniProt O76074)", "assay": "Inhibition of recombinant PDE5A1 (535 to 860 residues) (unknown origin) expressed in Escherichia coli BL21 using [3H]cGMP as substrate incubated for 15 mins by liquid scintillation method"}, "Mus musculus [10]": {"test_system": "Mus musculus", "assay": "Anti-inflammatory bowel disease activity in DSS-induced inflammatory bowel disease C57BL/6 mouse model assessed as decrease in goblet cells in colon at 5 mg/kg, iv BID and measured after 8 days by Haematoxylin and eosin staining based microscopy", "format": "functional, organism-based", "conditions": "time 8.0 day"}, "Mus musculus [11]": {"test_system": "Mus musculus", "assay": "Anti-inflammatory bowel disease activity in DSS-induced inflammatory bowel disease C57BL/6 mouse model assessed as decrease in IL-6 mRNA expression level in colon at 5 mg/kg, iv BID and measured after 8 days by real-time PCR analysis", "format": "functional, organism-based", "conditions": "time 8.0 day"}, "[12]": {"biological_target": "Voltage-gated inwardly rectifying potassium channel KCNH2 (Homo sapiens, UniProt Q12809)", "sequence (Q12809 whole entry)": "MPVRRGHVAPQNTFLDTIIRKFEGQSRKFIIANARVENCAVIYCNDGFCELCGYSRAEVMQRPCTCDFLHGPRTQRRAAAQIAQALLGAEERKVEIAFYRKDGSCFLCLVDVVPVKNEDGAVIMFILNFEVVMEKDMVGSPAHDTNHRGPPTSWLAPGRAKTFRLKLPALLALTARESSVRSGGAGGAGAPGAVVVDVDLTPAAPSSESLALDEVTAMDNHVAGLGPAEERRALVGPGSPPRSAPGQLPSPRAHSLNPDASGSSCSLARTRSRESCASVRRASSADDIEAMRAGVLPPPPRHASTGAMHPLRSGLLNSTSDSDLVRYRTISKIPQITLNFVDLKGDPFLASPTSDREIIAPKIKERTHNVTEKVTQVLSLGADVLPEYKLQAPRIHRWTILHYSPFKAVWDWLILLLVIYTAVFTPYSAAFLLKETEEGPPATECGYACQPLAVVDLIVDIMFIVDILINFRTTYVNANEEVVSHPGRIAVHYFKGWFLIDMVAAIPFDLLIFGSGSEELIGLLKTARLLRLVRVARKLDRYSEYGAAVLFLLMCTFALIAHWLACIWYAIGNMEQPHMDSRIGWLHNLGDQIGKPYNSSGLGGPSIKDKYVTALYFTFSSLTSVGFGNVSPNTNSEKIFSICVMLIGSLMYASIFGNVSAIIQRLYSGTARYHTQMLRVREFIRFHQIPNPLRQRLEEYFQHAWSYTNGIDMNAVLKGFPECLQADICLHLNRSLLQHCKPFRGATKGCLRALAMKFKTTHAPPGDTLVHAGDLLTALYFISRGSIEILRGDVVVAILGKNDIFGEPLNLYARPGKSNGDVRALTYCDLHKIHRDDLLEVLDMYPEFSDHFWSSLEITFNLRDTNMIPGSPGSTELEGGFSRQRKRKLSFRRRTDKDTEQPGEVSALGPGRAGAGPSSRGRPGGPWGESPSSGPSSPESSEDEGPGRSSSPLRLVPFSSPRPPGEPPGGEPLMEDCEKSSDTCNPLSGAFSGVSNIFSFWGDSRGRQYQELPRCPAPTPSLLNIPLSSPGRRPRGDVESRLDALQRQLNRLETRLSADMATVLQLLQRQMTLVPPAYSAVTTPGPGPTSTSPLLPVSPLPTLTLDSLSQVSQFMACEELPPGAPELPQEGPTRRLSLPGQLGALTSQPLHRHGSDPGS", "assay": "Inhibition of human ERG", "format": "toxicity"}, "[13]": {"assay": "Selectivity index, ratio of IC50 for inhibition of recombinant PDE2A (580 to 919 residues) (unknown origin) expressed in Escherichia coli BL21 to IC50 for inhibition of recombinant PDE4D2 (86 to 413 residues) (unknown origin) expressed in Escherichia coli BL21"}, "[14]": {"assay": "Selectivity index, ratio of IC50 for inhibition of recombinant PDE1C (147 to 531 residues) (unknown origin) expressed in Escherichia coli BL21 to IC50 for inhibition of recombinant PDE4D2 (86 to 413 residues) (unknown origin) expressed in Escherichia coli BL21"}, "Mus musculus [15]": {"test_system": "Mus musculus", "assay": "Anti-inflammatory bowel disease activity in DSS-induced inflammatory bowel disease C57BL/6 mouse model assessed as decrease in IFN-gamma mRNA expression level in colon at 5 mg/kg, iv BID and measured after 8 days by real-time PCR analysis", "format": "functional, organism-based", "conditions": "time 8.0 day"}}, "note": "Activity calls are given as the source filed them. No cut-off for these calls is given here.", "data": [{"smiles": "COc1c(OCC2CC2)cc2oc3cc4c(c(OCc5ccncc5)c3c(=O)c2c1CC=C(C)C)C=CC(C)(C)O4", "values": [{"measurement": "Activity", "setting": "Mus musculus [1]", "value": "Active"}, {"measurement": "IC50", "setting": "Cytochrome P450 1A2", "value": "> 25", "unit": "µM"}, {"measurement": "IC50", "setting": "Cytochrome P450 3A4", "value": 6.1, "unit": "µM"}, {"measurement": "Activity", "setting": "Mus musculus [2]", "value": "Active"}, {"measurement": "Ratio IC50", "setting": "[3]", "value": 55}, {"measurement": "half-life", "setting": "[4]", "value": 7.42, "unit": "h"}, {"measurement": "half-life", "setting": "[5]", "value": 4.18, "unit": "h"}, {"measurement": "Ratio IC50", "setting": "[6]", "value": 353}, {"measurement": "IC50", "setting": "Cytochrome P450 2B6", "value": "> 25", "unit": "µM"}, {"measurement": "IC50", "setting": "Cytochrome P450 2C9", "value": 4.1, "unit": "µM"}, {"measurement": "IC50", "setting": "[7]", "value": "> 10", "unit": "µM"}, {"measurement": "clearance", "setting": "[8]", "value": 6.4, "unit": "mL/min/kg"}, {"measurement": "IC50", "setting": "[9]", "value": 1.24, "unit": "µM"}, {"measurement": "Activity", "setting": "Mus musculus [10]", "value": "Active"}, {"measurement": "Activity", "setting": "Mus musculus [11]", "value": "Active"}, {"measurement": "IC50", "setting": "[12]", "value": "> 40", "unit": "µM"}, {"measurement": "Ratio IC50", "setting": "[13]", "value": "> 2800"}, {"measurement": "Ratio IC50", "setting": "[14]", "value": "> 2800"}, {"measurement": "Activity", "setting": "Mus musculus [15]", "value": "Active"}]}]}
